The text below walks through data of patent US10676465B2, “GLP-1 receptor agonists and uses thereof” (Pfizer Inc., priority 2018, dated 2020).

SMILES strings stand for the structures. Like-named read-outs stand apart in the source and are kept apart here.

Test [1] addresses human GLP-1R (Homo sapiens, UniProt P43220, G168S). The test can be described thus: CHO GLP-1R Clone H6 - Assay 1 (HTRF cAMP agonist assay). Format: cell-based. As to conditions: for EC50: CHO GLP-1R Clone H6, cAMP HTRF, geometric mean; for Emax / Assay 1 Emax (%): CHO GLP-1R Clone H6, arithmetic mean, relative to saturating GLP-1 (1 μM). (In general: TR-FRET usually uses a lanthanide donor and a delayed reading to cut background.)

The target in test [2] is human GLP-1R (Homo sapiens (Human), UniProt P43220, L260F). The test can be described thus: CHO GLP-1R Clone C6 - Assay 2 (HTRF cAMP agonist assay, low receptor density). As to conditions: for Emax: read-out: Assay 2 Emax (%), CHO GLP-1R Clone C6 (low receptor density).
Sequence of human GLP-1R (Homo sapiens (Human), UniProt P43220, L260F) (P43220 24-463 L260F): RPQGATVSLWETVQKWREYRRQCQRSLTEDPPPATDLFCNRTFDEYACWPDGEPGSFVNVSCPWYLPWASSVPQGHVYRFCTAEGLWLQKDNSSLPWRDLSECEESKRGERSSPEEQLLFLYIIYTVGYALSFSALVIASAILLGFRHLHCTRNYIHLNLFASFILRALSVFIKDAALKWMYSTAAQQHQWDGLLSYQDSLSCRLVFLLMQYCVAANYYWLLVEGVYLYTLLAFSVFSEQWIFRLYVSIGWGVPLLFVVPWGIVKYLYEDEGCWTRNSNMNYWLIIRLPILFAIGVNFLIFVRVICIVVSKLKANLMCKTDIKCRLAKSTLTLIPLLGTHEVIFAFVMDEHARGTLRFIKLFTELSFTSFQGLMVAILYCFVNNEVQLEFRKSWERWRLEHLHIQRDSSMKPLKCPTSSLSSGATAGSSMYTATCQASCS
Where [3] appears, read: Assay 2 EC50 (nM), CHO GLP-1R Clone C6 (low receptor density), cAMP HTRF, geometric mean.
Setting [4] is: arithmetic mean, relative to saturating GLP-1 (1 μM).
Setting [5] is: EC50 in Assay 2, CHO GLP-1R Clone C6, cAMP, geometric mean of replicates.
The mark [6] stands for this setting: read-out: Assay 2 EC50, CHO GLP-1R Clone C6 (low receptor density), cAMP HTRF, geometric mean.

Sequence of human GLP-1R (Homo sapiens, UniProt P43220, G168S) (P43220 24-463 G168S limits assumed): as the sequence (P43220 24-463 L260F) above, with G145S, F237L counted along it

On human GLP-1R [1], `COCCn1c(CN2CCN(c3cccc4c3OC(c3ccc(Cl)cc3F)O4)CC2)nc2ccc(C(=O)O)cc21` (single isomer, unassigned) [Example 1, 2-({4-[2-(4-Chloro-2-fluorophenyl)-1,3-benzodioxol-4-yl]piperazin-1-yl}methyl)-1-(2-methoxyethyl)-1H-benzimidazole-6-carboxylic Acid] displayed an EC50 of 880 nM and a maximal response (Emax) of 99%. On human GLP-1R [2] (setting [3]), this compound registered a half-maximal effective concentration (EC50) of more than 20000 nM.

Consider `COCCn1c(CN2CCN(c3cccc4c3OC(c3ccc(Cl)cc3F)O4)CC2)nc2ccc(C(=O)O)cc21` (single isomer, unassigned) [Example 2, 2-({4-[2-(4-Chloro-2-fluorophenyl)-1,3-benzodioxol-4-yl]piperazin-1-yl}methyl)-1-(2-methoxyethyl)-1H-benzimidazole-6-carboxylic Acid], for which, on human GLP-1R [1], the EC50 came to 6.6 nM and the “Assay 1 Emax (%)” value came to 81%. At human GLP-1R [2] (setting [3]), this compound yielded an EC50 of 260 nM. In addition, the maximum response (Emax) on human GLP-1R [2] (setting [4]) is 100%.

As for `CC1(c2ccc(C#N)cc2F)Oc2cccc(C3CCN(Cc4nc5ccc(C(=O)O)cc5n4C[C@@H]4CCO4)CC3)c2O1` (single isomer, unassigned) [Example 8], the concentration for a half-maximal effect (EC50) at human GLP-1R [1] was found to be 0.3 nM; at human GLP-1R [2] (setting [3]) it was 3.6 nM. In addition, the figures for the Emax at human GLP-1R [1] and at human GLP-1R [2] (setting [4]) were 92% and 91%, respectively.

As to `CC1(c2ccc(C#N)cc2F)Oc2cccc(C3CCN(Cc4nc5ccc(C(=O)O)cc5n4C[C@@H]4CCO4)CC3)c2O1` (single isomer, unassigned) [Example 9], on human GLP-1R [1], the EC50 came to 73 nM and the “Assay 1 Emax (%)” value turned out to be 88%. For the same compound, the concentration giving a half-maximal response (EC50) at human GLP-1R [2] (setting [3]) stood at 1600 nM. Further, on human GLP-1R [2] (CHO GLP-1R Clone C6 (low receptor density), arithmetic mean, relative to saturating GLP-1 (1 μM)), the “Assay 2 Emax (%)” value was 90%.

`CC1(c2ccc(Cl)cn2)Oc2cccc(C3CCN(Cc4nc5ccc(C(=O)O)cc5n4C[C@@H]4CCO4)CC3)c2O1` (single isomer, unassigned) [Example 10]: the figures for the Emax at human GLP-1R [1] and on human GLP-1R [2] (setting [4]) were 99% and 96%, respectively.

In the case of `COCCn1c(C2CC23CCN(c2cccc4c2OC(C)(c2ccc(Cl)cc2F)O4)CC3)nc2ccc(C(=O)O)cc21` (single isomer, unassigned) [Example 15, 2-{6-[2-(4-Chloro-2-fluorophenyl)-2-methyl-1,3-benzodioxol-4-yl]-6-azaspiro[2.5]oct-1-yl}-1-(2-methoxyethyl)-1H-benzimidazole-6-carboxylic Acid], at human GLP-1R [1], the EC50 was more than 18000 nM and the maximal response (Emax) was 100%. Further, at human GLP-1R [2] (setting [3]), the EC50 was more than 20000 nM.

`O=C(O)c1ccc2nc(CN3CCC(c4cccc5c4O[C@@H](c4ccc(Cl)cc4F)O5)CC3)n(C[C@@H]3CCO3)c2c1` [5, free acid, 2-({4-[(2S)-2-(4-Chloro-2-fluorophenyl)-1,3-benzodioxol-4-yl]piperidin-1-yl}methyl)-1-[(2S)-oxetan-2-ylmethyl]-1H-benzimidazole-6-carboxylic Acid]: at human GLP-1R [2] (setting [5]), a half-maximal effect (EC50) was put at 25 nM.

Compound `C[C@]1(c2ccc(Cl)cc2F)Oc2cccc(C3CCN(Cc4nc5ccc(C(=O)O)cc5n4C[C@@H]4CCO4)CC3)c2O1` [7, free acid, 2-({4-[(2S)-2-(4-Chloro-2-fluorophenyl)-2-methyl-1,3-benzodioxol-4-yl]piperidin-1-yl}methyl)-1-[(2S)-oxetan-2-ylmethyl]-1H-benzimidazole-6-carboxylic Acid] registered an EC50 at human GLP-1R [2] (setting [5]) of 4.3 nM.

On human GLP-1R [1], `COCCn1c(CN2CCC(c3cccc4c3OC(C)(c3cccnc3)O4)CC2)nc2ccc(C(=O)O)cc21` (stereo not shown) [Example 11, 1-(2-Methoxyethyl)-2-({4-[2-methyl-2-(pyridin-3-yl)-1,3-benzodioxol-4-yl]piperidin-1-yl}methyl)-1H-benzimidazole-6-carboxylic Acid] came in with an EC50 of 290 nM and a maximal effect (Emax) of 78%.

On to `COCCn1c(CN2CCN(c3cccc4c3OC(c3ccccc3)O4)CC2)nc2ccc(C(=O)O)cc21` (stereo not shown) [Example 22, 1-(2-methoxyethyl)-2-{[4-(2-phenyl-1,3-benzodioxol-4-yl)piperazin-1-yl]methyl}-1H-benzimidazole-6-carboxylic acid], for which the EC50 on human GLP-1R [1] is more than 20000 nM.

At human GLP-1R [1], `COCCn1c(CN2CCN(c3cccc4c3OC(c3ccccc3)O4)CC2)nc2ccc(C(=O)O)cc21` (stereo not shown) [Example 23, 1-(2-methoxyethyl)-2-{[4-(2-phenyl-1,3-benzodioxol-4-yl)piperazin-1-yl]methyl}-1H-benzimidazole-6-carboxylic acid] gave an EC50 of 680 nM and a maximal response (Emax) of 76%.

On to `COCCn1c(CN2CCC(c3cccc4c3OC(C)(c3cccc(C(F)(F)F)c3)O4)CC2)nc2ccc(C(=O)O)cc21` (stereo not shown) [Example 28, 1-(2-methoxyethyl)-2-[(4-{2-methyl-2-[3-(trifluoromethyl)phenyl]-1,3-benzodioxol-4-yl}piperidin-1-yl)methyl]-1H-benzimidazole-6-carboxylic acid], for which, on human GLP-1R [1], a half-maximal effect (EC50) was put at 480 nM and the Emax was determined as 87%.

At human GLP-1R [1], `COCCn1c(CN2CCC(c3cccc4c3OC(C)(c3cccc(C)n3)O4)CC2)nc2ccc(C(=O)O)cc21` (stereo not shown) [Example 36, 1-(2-methoxyethyl)-2-({4-[2-methyl-2-(6-methylpyridin-2-yl)-1,3-benzodioxol-4-yl]piperidin-1-yl}methyl)-1H-benzimidazole-6-carboxylic acid] returned a concentration for a half-maximal effect (EC50) of 760 nM and an Emax of 85%.

On human GLP-1R [1], `COCCn1c(CN2CCC(c3cccc4c3OC(C)(c3cccc(OC)c3)O4)CC2)nc2ccc(C(=O)O)cc21` (stereo not shown) [Example 39, 1-(2-methoxyethyl)-2-({4-[2-(3-methoxyphenyl)-2-methyl-1,3-benzodioxol-4-yl]piperidin-1-yl}methyl)-1H-benzimidazole-6-carboxylic acid] yielded a concentration for a half-maximal effect (EC50) of 200 nM and an Emax of 83%.

Turning to `CC1(c2ccc(Cl)cc2F)Oc2cccc(C3CCN(Cc4nc5ccc(C(=O)O)cc5n4CCN4CCOCC4)CC3)c2O1` (stereo not shown) [Example 44, 2-({4-[2-(4-chloro-2-fluorophenyl)-2-methyl-1,3-benzodioxol-4-yl]piperidin-1-yl}methyl)-1-[2-(morpholin-4-yl)ethyl]-1H-benzimidazole-6-carboxylic acid], on human GLP-1R [1], a half-maximal effect (EC50) was put at 160 nM and the maximal effect (Emax) came out at 78%.

On human GLP-1R [1], `CC1(c2ccc(Cl)cc2F)Oc2cccc(C3CCN(Cc4nc5ccc(C(=O)O)cc5n4CCc4ncc[nH]4)CC3)c2O1` (stereo not shown) [Example 74, 2-({4-[2-(4-chloro-2-fluorophenyl)-2-methyl-1,3-benzodioxol-4-yl]piperidin-1-yl}methyl)-1-[2-(1H-imidazol-2-yl)ethyl]-1H-benzimidazole-6-carboxylic acid] came in with a concentration for a half-maximal effect (EC50) of 460 nM and a maximum response (Emax) of 90%.

Consider `COCCn1c(CN2CCC(c3cccc4c3OC(C)(c3cccc(C)c3)O4)CC2)nc2ccc(C(=O)O)cc21` (stereo not shown) [Example 85, 1-(2-methoxyethyl)-2-({4-[2-methyl-2-(3-methylphenyl)-1,3-benzodioxol-4-yl]piperidin-1-yl}methyl)-1H-benzimidazole-6-carboxylic acid], for which, at human GLP-1R [1], the midpoint of the response, the EC50, lay at 230 nM and the Emax amounted to 80%.

At human GLP-1R [1], `COCCn1c(CN2CCC(c3cccc4c3OC(C)(c3cccc(C#N)c3)O4)CC2)nc2ccc(C(=O)O)cc21` (stereo not shown) [Example 87, 2-({4-[2-(3-cyanophenyl)-2-methyl-1,3-benzodioxol-4-yl]piperidin-1-yl}methyl)-1-(2-methoxyethyl)-1H-benzimidazole-6-carboxylic acid] gave an EC50 of 570 nM and an Emax of 89%.

In the case of `COCCn1c(CN2CCC(c3cccc4c3OC(C)(c3ccccn3)O4)CC2)nc2ccc(C(=O)O)cc21` (stereo not shown) [Example 90, 1-(2-methoxyethyl)-2-({4-[2-methyl-2-(pyridin-2-yl)-1,3-benzodioxol-4-yl]piperidin-1-yl}methyl)-1H-benzimidazole-6-carboxylic acid], on human GLP-1R [1], the half-maximal effective concentration (EC50) is more than 20000 nM.

For the compound `CC1(c2ccc(Cl)cn2)Oc2cccc(C3CCN(Cc4nc5ccc(C(=O)O)cc5n4C[C@@H]4CCO4)CC3)c2O1` (stereo partly drawn) [Example 95, 2-({4-[2-(5-chloropyridin-2-yl)-2-methyl-1,3-benzodioxol-4-yl]piperidin-1-yl}methyl)-1-[(2S)-oxetan-2-ylmethyl]-1H-benzimidazole-6-carboxylic acid], on human GLP-1R [1], the Emax was found to be 77%.

Turning to `C[C@]1(c2ccc(Cl)cc2F)Oc2cccc(C3CCN(Cc4nc5ccc(C(=O)O)c(F)c5n4C[C@@H]4CCO4)CC3)c2O1` [Example 100, 2-({4-[(2S)-2-(4-chloro-2-fluorophenyl)-2-methyl-1,3-benzodioxol-4-yl]piperidin-1-yl}methyl)-7-fluoro-1[(2S)-oxetan-2-ylmethyl]-1H-benzimidazole-6-carboxylic acid], the concentration giving a half-maximal response (EC50) on human GLP-1R [2] (setting [6]) is 7.6 nM. The maximum response (Emax) at human GLP-1R [2] (setting [4]) turned out to be 99%.

Take `O=C(O)c1ccc2nc(CN3CCC(c4cccc5c4O[C@@H](c4ccc(Cl)cc4F)O5)CC3)n(C[C@@H]3CCO3)c2c1F` [Example 101, 2-({4-[(2S)-2-(4-chloro-2-fluorophenyl)-1,3-benzodioxol-4-yl]piperidin-1-yl}methyl)-7-fluoro-1-[(2S)-oxetan-2-ylmethyl]-1H-benzimidazole-6-carboxylic acid]: at human GLP-1R [2] (setting [6]), the EC50 worked out at 19 nM. For the same compound, on human GLP-1R [2] (setting [4]), the maximum response (Emax) stood at 74%.

For `COCCn1c(CN2CCC(c3cccc4c3OC(CO)(c3ccccc3)O4)CC2)nc2ccc(C(=O)O)cc21` (stereo not shown) [Example 102, 2-({4-[2-(hydroxymethyl)-2-phenyl-1,3-benzodioxol-4-yl]piperidin-1-yl}methyl)-1-(2-methoxyethyl)-1H-benzimidazole-6-carboxylic acid], at human GLP-1R [1], the response was half-maximal at 600 nM (EC50) and the Emax amounted to 86%.

The EC50 is the concentration that produces a half-maximal response. As usually defined, the Emax is the maximal effect, on the per cent scale that the assay sets.
